Laboratory results: PMC8058163 (Clinical pharmacology and therapeutics, 2020)
Where two headings read alike, the source gives them in different places.

Assays:
OAT3 = target: T1, OAT3 (Homo sapiens, UniProt Q8TCC7); test: Transporter inhibition assay, OAT3
T1 sequence (Q8TCC7 1-542): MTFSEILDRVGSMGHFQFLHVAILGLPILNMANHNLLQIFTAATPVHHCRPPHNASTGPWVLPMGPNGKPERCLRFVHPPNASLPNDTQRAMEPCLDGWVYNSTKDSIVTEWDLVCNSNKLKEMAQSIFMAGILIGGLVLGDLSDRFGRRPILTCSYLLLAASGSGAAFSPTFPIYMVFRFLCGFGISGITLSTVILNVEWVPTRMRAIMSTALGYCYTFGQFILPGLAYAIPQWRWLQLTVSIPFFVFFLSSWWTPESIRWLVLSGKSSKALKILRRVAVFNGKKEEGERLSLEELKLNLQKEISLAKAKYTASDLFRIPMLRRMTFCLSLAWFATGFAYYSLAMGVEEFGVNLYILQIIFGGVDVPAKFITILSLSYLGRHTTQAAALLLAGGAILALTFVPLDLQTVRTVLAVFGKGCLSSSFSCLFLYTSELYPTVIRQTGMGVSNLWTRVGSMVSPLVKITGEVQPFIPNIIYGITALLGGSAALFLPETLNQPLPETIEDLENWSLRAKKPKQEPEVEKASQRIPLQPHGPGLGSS

OATP2B1 = target: T2, OATP2B1 (Homo sapiens, UniProt O94956); test: Transporter inhibition assay, OATP2B1; details: for inhibition at 100 μM: cell line (HEK293 or MDCKII) stably expressing OATP2B1
T2 sequence (O94956 1-709): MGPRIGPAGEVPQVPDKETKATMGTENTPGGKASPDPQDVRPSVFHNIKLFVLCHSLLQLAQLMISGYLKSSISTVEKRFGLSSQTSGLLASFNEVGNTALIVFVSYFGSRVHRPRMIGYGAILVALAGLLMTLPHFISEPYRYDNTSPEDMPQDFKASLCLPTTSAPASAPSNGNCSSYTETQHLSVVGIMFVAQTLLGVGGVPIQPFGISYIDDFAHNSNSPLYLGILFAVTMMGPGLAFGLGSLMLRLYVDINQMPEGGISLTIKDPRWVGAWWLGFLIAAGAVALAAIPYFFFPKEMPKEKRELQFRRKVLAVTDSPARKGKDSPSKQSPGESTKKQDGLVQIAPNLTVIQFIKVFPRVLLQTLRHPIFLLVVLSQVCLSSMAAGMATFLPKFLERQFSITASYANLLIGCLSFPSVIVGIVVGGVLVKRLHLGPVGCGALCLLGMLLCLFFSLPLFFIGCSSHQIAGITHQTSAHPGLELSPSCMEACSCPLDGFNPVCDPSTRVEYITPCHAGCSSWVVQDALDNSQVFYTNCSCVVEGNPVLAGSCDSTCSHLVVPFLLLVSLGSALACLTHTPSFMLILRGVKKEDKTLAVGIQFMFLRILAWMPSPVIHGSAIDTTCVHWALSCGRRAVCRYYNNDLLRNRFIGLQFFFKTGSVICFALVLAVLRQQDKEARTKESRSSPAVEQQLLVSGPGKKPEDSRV

MRP3 = MRP3 (Homo sapiens, UniProt O15438); test: Transporter inhibition assay, MRP3
OATP1B3 = target: T3, OATP1B3 (Homo sapiens, UniProt Q9NPD5); test: Transporter inhibition assay, OATP1B3; type: cell-based; details: cell line (HEK293 or MDCKII) stably expressing OATP1B3
T3 sequence (Q9NPD5 1-702): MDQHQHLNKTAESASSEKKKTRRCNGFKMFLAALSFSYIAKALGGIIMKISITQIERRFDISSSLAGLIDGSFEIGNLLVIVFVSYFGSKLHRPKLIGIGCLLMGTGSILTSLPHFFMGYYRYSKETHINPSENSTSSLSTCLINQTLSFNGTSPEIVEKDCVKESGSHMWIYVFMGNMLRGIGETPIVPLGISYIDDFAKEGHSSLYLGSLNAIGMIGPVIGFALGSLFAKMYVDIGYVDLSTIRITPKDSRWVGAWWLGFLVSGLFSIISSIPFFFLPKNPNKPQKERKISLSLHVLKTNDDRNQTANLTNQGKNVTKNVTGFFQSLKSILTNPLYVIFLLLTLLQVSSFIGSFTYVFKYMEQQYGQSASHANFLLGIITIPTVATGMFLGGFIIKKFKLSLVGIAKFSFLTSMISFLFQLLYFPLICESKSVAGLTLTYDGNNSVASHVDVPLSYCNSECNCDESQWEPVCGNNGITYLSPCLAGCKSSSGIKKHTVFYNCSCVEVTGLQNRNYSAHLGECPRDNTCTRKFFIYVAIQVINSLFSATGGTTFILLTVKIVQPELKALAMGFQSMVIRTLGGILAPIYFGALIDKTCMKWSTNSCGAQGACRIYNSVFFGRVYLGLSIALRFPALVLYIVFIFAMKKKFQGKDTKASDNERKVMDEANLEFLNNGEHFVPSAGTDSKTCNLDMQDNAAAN

NTCP = target: T4, NTCP (Homo sapiens, UniProt Q14973); test: Transporter inhibition assay, NTCP; type: cell-based; details: alkaloids screened at 10 and 100 μM
T4 sequence (Q14973 1-349): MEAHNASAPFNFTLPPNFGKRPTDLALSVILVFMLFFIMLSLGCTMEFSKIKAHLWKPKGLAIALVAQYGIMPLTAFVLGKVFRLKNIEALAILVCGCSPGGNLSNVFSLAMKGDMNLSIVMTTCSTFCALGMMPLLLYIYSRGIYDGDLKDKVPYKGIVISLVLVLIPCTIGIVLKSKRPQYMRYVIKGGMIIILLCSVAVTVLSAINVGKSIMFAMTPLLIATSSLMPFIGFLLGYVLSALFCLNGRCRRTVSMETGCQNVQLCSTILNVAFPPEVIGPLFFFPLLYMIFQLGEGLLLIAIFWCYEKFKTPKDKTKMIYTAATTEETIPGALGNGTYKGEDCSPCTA

P-gp = P-gp (Homo sapiens, UniProt P08183); test: Transporter inhibition assay, P-gp; type: biochemical
BSEP = BSEP (Homo sapiens, UniProt O95342); test: Transporter inhibition assay, BSEP
BSEP, sequence (O95342 whole entry): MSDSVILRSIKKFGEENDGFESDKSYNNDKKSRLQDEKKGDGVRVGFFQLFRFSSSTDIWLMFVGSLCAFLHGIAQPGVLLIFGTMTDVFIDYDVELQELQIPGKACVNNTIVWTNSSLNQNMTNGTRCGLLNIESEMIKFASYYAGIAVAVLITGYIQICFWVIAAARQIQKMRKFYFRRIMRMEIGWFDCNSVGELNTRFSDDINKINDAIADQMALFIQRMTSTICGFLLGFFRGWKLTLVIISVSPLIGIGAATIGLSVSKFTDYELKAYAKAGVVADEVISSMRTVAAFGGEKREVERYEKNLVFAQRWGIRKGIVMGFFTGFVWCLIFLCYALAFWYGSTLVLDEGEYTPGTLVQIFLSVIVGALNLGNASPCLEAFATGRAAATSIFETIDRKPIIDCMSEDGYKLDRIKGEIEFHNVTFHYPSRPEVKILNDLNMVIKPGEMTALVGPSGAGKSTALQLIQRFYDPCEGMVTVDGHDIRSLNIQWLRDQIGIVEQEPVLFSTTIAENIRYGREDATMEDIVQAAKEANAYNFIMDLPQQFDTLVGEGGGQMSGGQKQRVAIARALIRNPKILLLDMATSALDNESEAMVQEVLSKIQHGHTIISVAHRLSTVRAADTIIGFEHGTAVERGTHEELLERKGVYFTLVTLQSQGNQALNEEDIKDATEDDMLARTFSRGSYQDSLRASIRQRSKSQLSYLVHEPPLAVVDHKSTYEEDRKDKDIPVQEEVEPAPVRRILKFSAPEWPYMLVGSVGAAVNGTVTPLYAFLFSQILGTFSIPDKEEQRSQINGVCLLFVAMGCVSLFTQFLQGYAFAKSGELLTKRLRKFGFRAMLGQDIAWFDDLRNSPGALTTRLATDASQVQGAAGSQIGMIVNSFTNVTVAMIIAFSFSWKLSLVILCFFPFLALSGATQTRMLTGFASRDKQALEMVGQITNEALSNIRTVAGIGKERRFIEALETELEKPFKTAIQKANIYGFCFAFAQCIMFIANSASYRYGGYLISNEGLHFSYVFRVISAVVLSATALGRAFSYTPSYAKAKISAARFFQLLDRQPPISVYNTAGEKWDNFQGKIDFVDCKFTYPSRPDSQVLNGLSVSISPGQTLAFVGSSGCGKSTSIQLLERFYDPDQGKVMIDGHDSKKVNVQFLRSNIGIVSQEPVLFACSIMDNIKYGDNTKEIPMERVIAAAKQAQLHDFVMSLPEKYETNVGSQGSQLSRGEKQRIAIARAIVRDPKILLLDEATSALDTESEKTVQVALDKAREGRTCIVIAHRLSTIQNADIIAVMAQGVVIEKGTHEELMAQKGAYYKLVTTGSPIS

MRP3, sequence (O15438 whole entry): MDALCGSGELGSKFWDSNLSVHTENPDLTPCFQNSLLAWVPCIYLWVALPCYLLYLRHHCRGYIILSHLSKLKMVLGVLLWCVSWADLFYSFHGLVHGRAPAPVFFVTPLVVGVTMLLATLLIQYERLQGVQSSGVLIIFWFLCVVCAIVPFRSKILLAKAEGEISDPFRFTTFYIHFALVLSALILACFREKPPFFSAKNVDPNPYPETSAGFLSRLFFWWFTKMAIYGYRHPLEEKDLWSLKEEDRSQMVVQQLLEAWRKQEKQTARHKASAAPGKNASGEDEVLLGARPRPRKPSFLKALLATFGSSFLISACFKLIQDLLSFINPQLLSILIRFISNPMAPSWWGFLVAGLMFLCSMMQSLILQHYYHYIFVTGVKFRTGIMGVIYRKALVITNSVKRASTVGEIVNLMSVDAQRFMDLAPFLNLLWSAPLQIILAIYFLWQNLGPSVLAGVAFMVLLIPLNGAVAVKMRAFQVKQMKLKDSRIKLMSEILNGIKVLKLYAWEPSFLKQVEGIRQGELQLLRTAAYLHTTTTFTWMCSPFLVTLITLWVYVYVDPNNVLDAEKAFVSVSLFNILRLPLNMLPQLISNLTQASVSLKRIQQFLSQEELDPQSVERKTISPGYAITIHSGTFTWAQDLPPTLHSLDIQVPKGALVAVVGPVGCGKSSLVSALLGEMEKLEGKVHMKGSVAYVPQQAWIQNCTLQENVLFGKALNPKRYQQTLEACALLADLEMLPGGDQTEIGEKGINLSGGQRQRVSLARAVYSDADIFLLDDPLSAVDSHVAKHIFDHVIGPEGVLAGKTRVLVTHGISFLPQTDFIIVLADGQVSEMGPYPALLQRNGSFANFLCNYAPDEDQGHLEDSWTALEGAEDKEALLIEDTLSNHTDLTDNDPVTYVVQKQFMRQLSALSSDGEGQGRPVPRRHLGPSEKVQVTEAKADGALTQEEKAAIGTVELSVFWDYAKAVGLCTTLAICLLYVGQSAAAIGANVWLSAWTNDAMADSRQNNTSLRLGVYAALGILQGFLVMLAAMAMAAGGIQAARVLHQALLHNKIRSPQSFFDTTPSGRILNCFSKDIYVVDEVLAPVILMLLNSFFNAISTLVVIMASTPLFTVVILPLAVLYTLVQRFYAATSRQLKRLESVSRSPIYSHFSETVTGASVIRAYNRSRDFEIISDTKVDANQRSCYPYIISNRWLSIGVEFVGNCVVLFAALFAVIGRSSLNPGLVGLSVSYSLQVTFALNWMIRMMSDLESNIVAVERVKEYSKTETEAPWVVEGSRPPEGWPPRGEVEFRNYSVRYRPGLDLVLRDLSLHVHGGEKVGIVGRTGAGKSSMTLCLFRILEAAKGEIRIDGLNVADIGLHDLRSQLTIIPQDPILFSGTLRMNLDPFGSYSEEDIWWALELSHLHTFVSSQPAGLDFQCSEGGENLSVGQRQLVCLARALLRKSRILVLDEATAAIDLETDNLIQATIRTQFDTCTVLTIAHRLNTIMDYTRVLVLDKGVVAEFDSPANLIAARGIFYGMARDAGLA
P-gp, sequence (P08183 whole entry): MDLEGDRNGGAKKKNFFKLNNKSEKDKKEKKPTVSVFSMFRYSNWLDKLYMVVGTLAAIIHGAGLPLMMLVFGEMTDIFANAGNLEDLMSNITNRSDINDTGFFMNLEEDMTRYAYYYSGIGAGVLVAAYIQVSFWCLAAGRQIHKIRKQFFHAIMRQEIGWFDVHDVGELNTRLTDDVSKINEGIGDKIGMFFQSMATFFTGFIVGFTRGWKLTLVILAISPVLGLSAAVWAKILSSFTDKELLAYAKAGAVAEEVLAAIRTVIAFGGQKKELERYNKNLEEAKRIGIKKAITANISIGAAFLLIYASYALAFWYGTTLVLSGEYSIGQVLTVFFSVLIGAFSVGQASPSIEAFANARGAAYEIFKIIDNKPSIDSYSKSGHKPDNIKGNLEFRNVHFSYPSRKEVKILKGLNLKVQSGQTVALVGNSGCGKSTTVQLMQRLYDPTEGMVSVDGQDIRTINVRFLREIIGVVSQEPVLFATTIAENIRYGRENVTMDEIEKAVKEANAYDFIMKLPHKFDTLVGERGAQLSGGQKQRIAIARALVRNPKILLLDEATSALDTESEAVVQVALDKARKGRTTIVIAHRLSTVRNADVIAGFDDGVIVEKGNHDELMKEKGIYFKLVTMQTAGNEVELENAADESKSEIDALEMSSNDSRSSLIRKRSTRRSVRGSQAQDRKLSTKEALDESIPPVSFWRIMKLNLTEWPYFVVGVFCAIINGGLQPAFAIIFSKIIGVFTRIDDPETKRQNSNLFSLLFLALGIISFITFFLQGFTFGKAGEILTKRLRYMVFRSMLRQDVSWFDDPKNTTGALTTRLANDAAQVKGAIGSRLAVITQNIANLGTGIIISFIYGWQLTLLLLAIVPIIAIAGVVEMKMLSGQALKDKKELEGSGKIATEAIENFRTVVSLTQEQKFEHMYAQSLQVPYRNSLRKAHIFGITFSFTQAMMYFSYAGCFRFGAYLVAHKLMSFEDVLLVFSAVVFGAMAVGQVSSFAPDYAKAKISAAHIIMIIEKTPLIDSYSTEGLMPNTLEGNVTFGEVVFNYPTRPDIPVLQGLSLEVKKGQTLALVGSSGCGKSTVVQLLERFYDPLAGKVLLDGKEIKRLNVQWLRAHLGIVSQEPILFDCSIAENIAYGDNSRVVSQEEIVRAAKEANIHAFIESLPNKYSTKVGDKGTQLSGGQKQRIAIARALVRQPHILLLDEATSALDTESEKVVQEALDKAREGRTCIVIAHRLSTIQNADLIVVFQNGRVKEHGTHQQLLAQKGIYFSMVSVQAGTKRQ

SMILES | inhibition at 100 μM (OAT3; cell line (HEK293 or MDCKII) stably expressing OAT3) | inhibition at 100 μM (OATP2B1) | inhibition at 100 μM (MRP3) | inhibition at 100 μM (OATP1B3) | inhibition at the highest concentration tested (NTCP) | inhibition at 100 μM (P-gp) | inhibition at 100 μM (BSEP) | IC50 (OAT3) | IC50 (OAT3; OAT3, isolated alkaloids, mean [95% CI], three technical replicates) | inhibition at the highest concentration tested (OATP2B1; OATP2B1, alkaloids screened at 10 and 100 μM) | inhibition at the highest concentration tested (MRP3; MRP3, alkaloids screened at 10 and 100 μM) | inhibition at the highest concentration tested (BSEP; BSEP, alkaloids screened at 10 and 100 μM)
CN1CCc2cc3c(cc2C1O)OCO3 (stereo not shown) [Hydrastinine, hydrastinine chloride monohydrate] | < 20% | < 20% | < 20% | < 20% | -- (inhibition not observed) | < 20% | < 20% | – | – | – | – | –
COc1ccc2cc3[n+](cc2c1OC)CCc1cc2c(cc1-3)OCO2 [Berberine, berberine chloride] | – | < 20% | < 20% | < 20% | -- (inhibition not observed) | < 20% | < 20% | 79 µM | – | – | – | –
COc1ccc2c(c1OC)C(=O)O[C@@H]2[C@H]1c2cc3c(cc2CCN1C)OCO3 [(−)-β-Hydrastine, (1R,9S)-(−)-β-Hydrastine] | – | – | – | – | -- (inhibition not observed) | – | – | – | 203 µM | -- (inhibition not observed) | -- (inhibition not observed) | -- (inhibition not observed)
